In ChEMBL document CHEMBL3797052 (Eur J Med Chem, 2016):

How the values were obtained:
Assay type in all cases: functional
[1] = Antiproliferative activity against human UO31 cells assessed as growth inhibition after 48 hrs by sulforhodamine B assay; conditions: UO-31, 48 h; for CC50: read-out: LC50 (the source's name)
KM12 = test: Antiproliferative activity against human KM12 cells assessed as growth inhibition after 48 hrs by sulforhodamine B assay; conditions: KM12, 48 h
[2] = Antiproliferative activity against human COLO205 cells assessed as growth inhibition after 48 hrs by sulforhodamine B assay; conditions: COLO 205, 48 h; for CC50: read-out: LC50 (the source's name)
T47D [3] = test: Antiproliferative activity against human T47D cells assessed as growth inhibition after 48 hrs by sulforhodamine B assay; conditions: for CC50: read-out: LC50 (the source's name)
[4] = Antiproliferative activity against human HCT15 cells assessed as growth inhibition after 48 hrs by sulforhodamine B assay; conditions: HCT-15, 48 h
[5] = Antiproliferative activity against human HCC2998 cells assessed as growth inhibition after 48 hrs by sulforhodamine B assay; conditions: HCC 2998, 48 h; for CC50: read-out: LC50 (the source's name)
NCI-H460 [6] = test: Antiproliferative activity against human NCI-H460 cells assessed as growth inhibition after 48 hrs by sulforhodamine B assay; conditions: NCI-H460, 48 h
[7] = Antiproliferative activity against human SNB19 cells assessed as growth inhibition after 48 hrs by sulforhodamine B assay; conditions: SNB-19, 48 h
M14 = test: Antiproliferative activity against human M14 cells assessed as cell growth at 10^-4 M after 48 hrs by sulforhodamine B assay; conditions: M14, 48 h, read-out: Activity
T47D [8] = test: Antiproliferative activity against human T47D cells assessed as cell growth at 10^-4 M after 48 hrs by sulforhodamine B assay; conditions: read-out: Activity
NCI-H522 = test: Antiproliferative activity against human NCI-H522 cells assessed as cell growth at 10^-6 M after 48 hrs by sulforhodamine B assay; conditions: NCI-H522, 48 h, read-out: Activity
MDA-MB-435 = test: Antiproliferative activity against human MDA-MB-435 cells assessed as cell growth at 10^-4 M after 48 hrs by sulforhodamine B assay; conditions: MDA-MB-435, 48 h, read-out: Activity
NCI-H322M = test: Antiproliferative activity against human NCI-H322M cells assessed as cell growth at 10^-8 M after 48 hrs by sulforhodamine B assay; conditions: read-out: Activity
EKVX [9] = test: Antiproliferative activity against human EKVX cells assessed as cell growth at 10^-7 M after 48 hrs by sulforhodamine B assay; conditions: read-out: Activity
[10] = Antiproliferative activity against human RXF393 cells assessed as cell growth at 10^-4 M after 48 hrs by sulforhodamine B assay; conditions: RXF 393, 48 h, read-out: Activity
NCI-H23 = test: Antiproliferative activity against human NCI-H23 cells assessed as cell growth at 10^-8 M after 48 hrs by sulforhodamine B assay; conditions: NCI-H23, 48 h, read-out: Activity
[11] = Antiproliferative activity against human COLO205 cells assessed as cell growth at 10^-6 M after 48 hrs by sulforhodamine B assay; conditions: COLO 205, 48 h, read-out: Activity
[12] = Antiproliferative activity against human SNB19 cells assessed as cell growth at 10^-4 M after 48 hrs by sulforhodamine B assay; conditions: SNB-19, 48 h, read-out: Activity
[13] = Antiproliferative activity against human SF268 cells assessed as cell growth at 10^-4 M after 48 hrs by sulforhodamine B assay; conditions: SF-268, 48 h, read-out: Activity
NCI-H460 [14] = test: Antiproliferative activity against human NCI-H460 cells assessed as cell growth at 10^-4 M after 48 hrs by sulforhodamine B assay; conditions: NCI-H460, 48 h, read-out: Activity
[15] = Antiproliferative activity against human UACC62 cells assessed as cell growth at 10^-6 M after 48 hrs by sulforhodamine B assay; conditions: UACC-62, 48 h, read-out: Activity
Malme-3M = test: Antiproliferative activity against human MALME-3M cells assessed as cell growth at 10^-7 M after 48 hrs by sulforhodamine B assay; conditions: read-out: Activity
[16] = Antiproliferative activity against human HCC2998 cells assessed as cell growth at 10^-4 M after 48 hrs by sulforhodamine B assay; conditions: HCC 2998, 48 h, read-out: Activity
[17] = Antiproliferative activity against human TK10 cells assessed as cell growth at 10^-4 M after 48 hrs by sulforhodamine B assay; conditions: TK-10, 48 h, read-out: Activity
HT-29 [18] = test: Antiproliferative activity against human HT-29 cells assessed as cell growth at 10^-7 M after 48 hrs by sulforhodamine B assay; conditions: HT-29, 48 h, read-out: Activity
[19] = Antiproliferative activity against human SF539 cells assessed as cell growth at 10^-4 M after 48 hrs by sulforhodamine B assay; conditions: SF-539, 48 h, read-out: Activity
[20] = Antiproliferative activity against human SF268 cells assessed as cell growth at 10^-7 M after 48 hrs by sulforhodamine B assay; conditions: SF-268, 48 h, read-out: Activity
[21] = Antiproliferative activity against human SF295 cells assessed as cell growth at 10^-8 M after 48 hrs by sulforhodamine B assay; conditions: SF-295, 48 h, read-out: Activity
MDA-MB-231 = test: Antiproliferative activity against human MDA-MB-231 cells assessed as cell growth at 10^-7 M after 48 hrs by sulforhodamine B assay; conditions: MDA-MB-231, 48 h, read-out: Activity
HT-29 [22] = test: Antiproliferative activity against human HT-29 cells assessed as cell growth at 10^-6 M after 48 hrs by sulforhodamine B assay; conditions: HT-29, 48 h, read-out: Activity
[23] = Antiproliferative activity against human UO31 cells assessed as cell growth at 10^-7 M after 48 hrs by sulforhodamine B assay; conditions: UO-31, 48 h, read-out: Activity
[24] = Antiproliferative activity against human UO31 cells assessed as cell growth at 10^-8 M after 48 hrs by sulforhodamine B assay; conditions: UO-31, 48 h, read-out: Activity
[25] = Antiproliferative activity against human RPMI8226 cells assessed as cell growth at 10^-8 M after 48 hrs by sulforhodamine B assay; conditions: RPMI-8226, 48 h, read-out: Activity
[26] = Antiproliferative activity against human OVCAR8 cells assessed as cell growth at 10^-7 M after 48 hrs by sulforhodamine B assay; conditions: OVCAR-8, 48 h, read-out: Activity
EKVX [27] = test: Antiproliferative activity against human EKVX cells assessed as cell growth at 10^-4 M after 48 hrs by sulforhodamine B assay; conditions: read-out: Activity
[28] = Antiproliferative activity against human SW620 cells assessed as cell growth at 10^-4 M after 48 hrs by sulforhodamine B assay; conditions: SW-620, 48 h, read-out: Activity

## CNC(=O)c1cc(Oc2ccc(NC(=O)Nc3ccc(Cl)c(C(F)(F)F)c3)cc2)ccn1 [SORAFENIB]
[1]
  GI50: 2.51 µM
  TGI: 7.94 µM
  CC50: 39.8 µM
KM12
  TGI: 7.94 µM
[2]
  GI50: 2 µM
  TGI: 7.94 µM
  CC50: 31.6 µM
T47D [3]
  TGI: 7.94 µM
  CC50: 31.6 µM
[4]
  GI50: 2.51 µM
  TGI: 12.6 µM
[5]
  GI50: 3.16 µM
  TGI: 3.16 µM
  CC50: 6.31 µM
NCI-H460 [6]
  GI50: 2.51 µM
  TGI: 10 µM
[7]
  GI50: 3.16 µM
  TGI: 15.8 µM

## CNC(=O)c1cc(Oc2ccc3nc(NC(=O)c4cc(C(F)(F)F)cc(C(F)(F)F)c4)sc3c2)ccn1
M14
  growth at 100 µM: -38%
[1]
  GI50: 2.19 µM
  TGI: 8.95 µM
  CC50: 97 µM
T47D [8]
  growth at 100 µM: -40%
NCI-H522
  growth at 1 µM: 96%
MDA-MB-435
  growth at 100 µM: -15%
NCI-H322M
  growth at 0.01 µM: 91%
EKVX [9]
  growth at 0.1 µM: 91%
[10]
  growth at 100 µM: -78%
KM12
  GI50: 2.7 µM
  LC50: 92.7 µM
  TGI: 11 µM
NCI-H23
  growth at 0.01 µM: 96%
[11]
  growth at 1 µM: 99%
[2]
  GI50: 2.82 µM
  TGI: 8.21 µM
  CC50: 32.8 µM
T47D [3]
  GI50: 3.04 µM
  TGI: 9.18 µM
  CC50: > 100 µM
[12]
  growth at 100 µM: -28%
[13]
  growth at 100 µM: -37%
[4]
  GI50: 3.97 µM
  LC50: > 100 µM
  TGI: 25.1 µM
NCI-H460 [14]
  growth at 100 µM: -69%
[5]
  GI50: 6.63 µM
  TGI: 24.7 µM
  CC50: 79.4 µM
NCI-H460 [6]
  GI50: 3.83 µM
  LC50 (concentration killing 50% of cells): 58.9 µM
  TGI: 14.6 µM
[15]
  growth at 1 µM: 84%
Malme-3M
  growth at 0.1 µM: 90%
[16]
  growth at 100 µM: -60%
[17]
  growth at 100 µM: -58%
HT-29 [18]
  growth at 0.1 µM: 107%
[19]
  growth at 100 µM: -61%
[20]
  growth at 0.1 µM: 97%
[21]
  growth at 0.01 µM: 93%
MDA-MB-231
  growth at 0.1 µM: 107%
HT-29 [22]
  growth at 1 µM: 100%
[23]
  growth at 0.1 µM: 86%
[24]
  growth at 0.01 µM: 85%
[25]
  growth at 0.01 µM: 97%
[7]
  GI50: 3.76 µM
  LC50 (50% lethal concentration): > 100 µM
  TGI: 22.8 µM
[26]
  growth at 0.1 µM: 102%
EKVX [27]
  growth at 100 µM: -27%
[28]
  growth at 100 µM: -10%
